Reference: US6525001B1, “Substituted pyrimidine and pyridine herbicides” (Mid-American Commercialization Corporation, priority 1997, dated 2003)

Experiments:
Format in all cases: in vivo
Set-up in all cases: key: 0 is no effect; 10 is complete control
[1] = test system: bedstraw (Galium aparine); experiment: Test B pre-/postemergence
From the text: (§1) Seeds of bedstraw (Galium aparine), blackgrass (Alopecurus myosuroides), broadleaf signalgrass (Brachiaria decumbens), cocklebur (Xanthium strumarium), corn (Zea mays), crabgrass (Digitaria sanguinalis), giant foxtail (Setaria faberii), lambsquarters (Chenopodium album), momingglory (Ipomoea hederacea), pigweed (Amaranthus retroflexus), rape (Brassica napus), soybean (Glycine max), sugar beet (Beta vulgaris), velvetleaf (Abutilon theophrasti), wheat (Triticum aestivum), wild oat (Avena fatua) and purple nutsedge (Cyperus rotundus) tubers were planted and treated preemergence with test chemicals formulated in a non-phytotoxic solvent mixture which included a surfactant.
(§2) At the same time, these crop and weed species were also treated with postemergence applications of test chemicals formulated in the same manner. Plants ranged in height from 2 to 18 cm (1- to 4-leaf stage) for postemergence treatments. Plant species in the flood test consisted of rice (Oryza sativa), smallflower flatsedge (Cyperus difformis), duck salad (Heteranthera limosa) and bamyardgrass (Echinochloa crus-galli) grown to the 2-leaf stage for testing. Treated plants and controls were maintained in a greenhouse for twelve to sixteen days, after which all species were compared to controls and visually evaluated. Plant response ratings, summarized in Table B, are based on a scale of 0 to 10 where 0 is no effect and 10 is complete control. A dash (−) response means no test result.

[2] = test system: blackgrass (Alopecurus myosuroides); experiment: Test B pre-/postemergence
From the text: as §1, §2

[3] = test system: broadleaf signalgrass (Brachiaria decumbens); experiment: Test B pre-/postemergence
From the text: as §1, §2

[4] = test system: cocklebur (Xanthium strumarium); experiment: Test B pre-/postemergence
From the text: as §1, §2

corn (Zea mays) = experiment: Test B pre-/postemergence
From the text: as §1, §2

[5] = test system: crabgrass (Digitaria sanguinalis); experiment: Test B pre-/postemergence
From the text: as §1, §2

[6] = test system: giant foxtail (Setaria faberii); experiment: Test B pre-/postemergence; conditions: for Plant response rating, Giant foxtail: Postemergence; for Giant foxtail plant response rating: Preemergence
From the text: as §1, §2

[7] = test system: momingglory (Ipomoea hederacea); experiment: Test B pre-/postemergence
From the text: as §1, §2

[8] = test system: pigweed (Amaranthus retroflexus); experiment: Test B pre-/postemergence
From the text: as §1, §2

[9] = test system: purple nutsedge (Cyperus rotundus); experiment: Test B pre-/postemergence
From the text: as §1, §2

rape (Brassica napus) = experiment: Test B pre-/postemergence
From the text: as §1, §2

soybean (Glycine max) = experiment: Test B pre-/postemergence
From the text: as §1, §2

[10] = test system: sugar beet (Beta vulgaris); experiment: Test B pre-/postemergence
From the text: as §1, §2

[11] = test system: velvetleaf (Abutilon theophrasti); experiment: Test B pre-/postemergence
From the text: as §1, §2

[12] = test system: wheat (Triticum aestivum); experiment: Test B pre-/postemergence
From the text: as §1, §2

wild oat (Avena fatua) = experiment: Test B pre-/postemergence
From the text: as §1, §2

[13] = test system: bamyardgrass (Echinochloa crus-galli); experiment: Test B flood test
Method in brief: (§3)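 Each value is a visual injury score relative to controls, with 10 meaning complete control and 0 no effect. Evaluation took place twelve to sixteen days after the 2-leaf-stage plants were treated and kept in the greenhouse.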

[14] = test system: duck salad (Heteranthera limosa); experiment: Test B flood test
Method in brief: as §3

rice (Oryza sativa) = experiment: Test B flood test
Method in brief: as §3

[15] = test system: smallflower flatsedge (Cyperus difformis); experiment: Test B flood test
Method in brief: as §3

[16] = Rate 62 g/ha, Postemergence (flood test)
[17] = Rate 125 g/ha, Postemergence, flood test
[18] = Rate 250 g/ha, Postemergence (flood test species)

## COC(=O)C(c1cccc(C(F)(F)F)c1)c1nc(-c2ccc(C(F)(F)F)cc2)ncc1C (racemic) [Compound 18]
[1]; Rate 62 g/ha, Postemergence
  Plant response rating, Bedstraw: 7
[1]; Rate 62 g/ha, Preemergence
  Bedstraw plant response rating: 0
[1]; Rate 125 g/ha, Postemergence
  Plant response rating, Bedstraw: 8
[1]; Rate 125 g/ha, Preemergence
  Bedstraw plant response rating: 2
[1]; Rate 250 g/ha, Postemergence
  Plant response rating, Bedstraw: 9
[1]; Rate 250 g/ha, Preemergence
  Plant response rating, Bedstraw: 5
[2]; Rate 62 g/ha, Postemergence
  Plant response rating, Blackgrass: 2
[2]; Rate 62 g/ha, Preemergence
  Blackgrass plant response rating: 0
[2]; Rate 125 g/ha, Postemergence
  Plant response rating, Blackgrass: 2
[2]; Rate 125 g/ha, Preemergence
  Blackgrass plant response rating: 0
[2]; Rate 250 g/ha, Postemergence
  Plant response rating, Blackgrass: 2
[2]; Rate 250 g/ha, Preemergence
  Plant response rating, Blackgrass: 1
[3]; Rate 62 g/ha, Postemergence
  Plant response rating, B. signalgrass: 2
[3]; Rate 62 g/ha, Preemergence
  B. signalgrass plant response rating: 0
[3]; Rate 125 g/ha, Postemergence
  Plant response rating, B. signalgrass: 2
[3]; Rate 125 g/ha, Preemergence
  B. signalgrass plant response rating: 1
[3]; Rate 250 g/ha, Postemergence
  Plant response rating, B. signalgrass: 3
[3]; Rate 250 g/ha, Preemergence
  Plant response rating, B. signalgrass: 2
[4]; Rate 62 g/ha, Postemergence
  Plant response rating, Cocklebur: 6
[4]; Rate 125 g/ha, Postemergence
  Plant response rating, Cocklebur: 7
[4]; Rate 250 g/ha, Postemergence
  Plant response rating, Cocklebur: 8
[4]; Rate 250 g/ha, Preemergence
  Plant response rating, Cocklebur: 0
Corn (Zea mays); Rate 62 g/ha, Postemergence
  Plant response rating, Corn: 2
Corn (Zea mays); Rate 62 g/ha, Preemergence
  Corn plant response rating: 0
Corn (Zea mays); Rate 125 g/ha, Postemergence
  Plant response rating, Corn: 2
Corn (Zea mays); Rate 125 g/ha, Preemergence
  Corn plant response rating: 0
Corn (Zea mays); Rate 250 g/ha, Postemergence
  Plant response rating, Corn: 2
Corn (Zea mays); Rate 250 g/ha, Preemergence
  Plant response rating, Corn: 0
[5]; Rate 62 g/ha, Postemergence
  Plant response rating, Crabgrass: 1
[5]; Rate 62 g/ha, Preemergence
  Crabgrass plant response rating: 0
[5]; Rate 125 g/ha, Postemergence
  Plant response rating, Crabgrass: 2
[5]; Rate 125 g/ha, Preemergence
  Crabgrass plant response rating: 0
[5]; Rate 250 g/ha, Postemergence
  Plant response rating, Crabgrass: 3
[5]; Rate 250 g/ha, Preemergence
  Plant response rating, Crabgrass: 6
[6]; Rate 62 g/ha
  Plant response rating, Giant foxtail: 1
  Giant foxtail plant response rating: 0
[6]; Rate 125 g/ha
  Plant response rating, Giant foxtail: 1
  Giant foxtail plant response rating: 0
[6]; Rate 250 g/ha
  Plant response rating, Giant foxtail: 1
[7]; Rate 62 g/ha, Postemergence
  Plant response rating, Morningglory: 3
[7]; Rate 62 g/ha, Preemergence
  Morningglory plant response rating: 1
[7]; Rate 125 g/ha, Postemergence
  Plant response rating, Morningglory: 8
[7]; Rate 125 g/ha, Preemergence
  Morningglory plant response rating: 4
[7]; Rate 250 g/ha, Postemergence
  Plant response rating, Morningglory: 8
[7]; Rate 250 g/ha, Preemergence
  Plant response rating, Morningglory: 6
[8]; Rate 62 g/ha, Postemergence
  Plant response rating, Redroot pigweed: 6
[8]; Rate 62 g/ha, Preemergence
  Redroot pigweed plant response rating: 0
[8]; Rate 125 g/ha, Postemergence
  Plant response rating, Redroot pigweed: 6
[8]; Rate 125 g/ha, Preemergence
  Redroot pigweed plant response rating: 3
[8]; Rate 250 g/ha, Postemergence
  Plant response rating, Redroot pigweed: 9
[8]; Rate 250 g/ha, Preemergence
  Plant response rating, Redroot pigweed: 7
[9]; Rate 62 g/ha, Postemergence
  Plant response rating, Nutsedge: 0
[9]; Rate 62 g/ha, Preemergence
  Nutsedge plant response rating: 0
[9]; Rate 125 g/ha, Postemergence
  Plant response rating, Nutsedge: 0
[9]; Rate 125 g/ha, Preemergence
  Nutsedge plant response rating: 0
[9]; Rate 250 g/ha, Postemergence
  Plant response rating, Nutsedge: 0
[9]; Rate 250 g/ha, Preemergence
  Plant response rating, Nutsedge: 0
Rape (Brassica napus); Rate 62 g/ha, Postemergence
  Plant response rating, Rape: 4
Rape (Brassica napus); Rate 62 g/ha, Preemergence
  Rape plant response rating: 0
Rape (Brassica napus); Rate 125 g/ha, Postemergence
  Plant response rating, Rape: 7
Rape (Brassica napus); Rate 125 g/ha, Preemergence
  Rape plant response rating: 0
Rape (Brassica napus); Rate 250 g/ha, Postemergence
  Plant response rating, Rape: 9
Rape (Brassica napus); Rate 250 g/ha, Preemergence
  Plant response rating, Rape: 0
Soybean (Glycine max); Rate 62 g/ha, Postemergence
  Plant response rating, Soybean: 3
Soybean (Glycine max); Rate 62 g/ha, Preemergence
  Soybean plant response rating: 0
Soybean (Glycine max); Rate 125 g/ha, Postemergence
  Plant response rating, Soybean: 4
Soybean (Glycine max); Rate 125 g/ha, Preemergence
  Soybean plant response rating: 0
Soybean (Glycine max); Rate 250 g/ha, Postemergence
  Plant response rating, Soybean: 6
Soybean (Glycine max); Rate 250 g/ha, Preemergence
  Plant response rating, Soybean: 0
[10]; Rate 62 g/ha, Postemergence
  Plant response rating, Sugarbeets: 7
[10]; Rate 62 g/ha, Preemergence
  Sugarbeets plant response rating: 3
[10]; Rate 125 g/ha, Postemergence
  Plant response rating, Sugarbeets: 7
[10]; Rate 125 g/ha, Preemergence
  Sugarbeets plant response rating: 6
[10]; Rate 250 g/ha, Postemergence
  Plant response rating, Sugarbeets: 9
[10]; Rate 250 g/ha, Preemergence
  Plant response rating, Sugarbeets: 6
[11]; Rate 62 g/ha, Postemergence
  Plant response rating, Velvetleaf: 5
[11]; Rate 62 g/ha, Preemergence
  Velvetleaf plant response rating: 0
[11]; Rate 125 g/ha, Postemergence
  Plant response rating, Velvetleaf: 6
[11]; Rate 125 g/ha, Preemergence
  Velvetleaf plant response rating: 0
[11]; Rate 250 g/ha, Postemergence
  Plant response rating, Velvetleaf: 7
[11]; Rate 250 g/ha, Preemergence
  Plant response rating, Velvetleaf: 0
[12]; Rate 62 g/ha, Postemergence
  Plant response rating, Wheat: 1
[12]; Rate 62 g/ha, Preemergence
  Wheat plant response rating: 0
[12]; Rate 125 g/ha, Postemergence
  Plant response rating, Wheat: 3
[12]; Rate 125 g/ha, Preemergence
  Wheat plant response rating: 0
[12]; Rate 250 g/ha, Postemergence
  Plant response rating, Wheat: 3
[12]; Rate 250 g/ha, Preemergence
  Plant response rating, Wheat: 0
Wild oat (Avena fatua); Rate 62 g/ha, Postemergence
  Plant response rating, Wild oats: 3
Wild oat (Avena fatua); Rate 62 g/ha, Preemergence
  Wild oats plant response rating: 2
Wild oat (Avena fatua); Rate 125 g/ha, Postemergence
  Plant response rating, Wild oats: 5
Wild oat (Avena fatua); Rate 125 g/ha, Preemergence
  Wild oats plant response rating: 3
Wild oat (Avena fatua); Rate 250 g/ha, Postemergence
  Plant response rating, Wild oats: 5
Wild oat (Avena fatua); Rate 250 g/ha, Preemergence
  Plant response rating, Wild oats: 5
[13]; [16]
  Plant response rating, Barnyardgrass: 2
[13]; [17]
  Plant response rating, Barnyardgrass: 1
[13]; [18]
  Plant response rating, Barnyardgrass: 2
[14]; [16]
  Plant response rating, Ducksalad: 1
[14]; [17]
  Plant response rating, Ducksalad: 2
[14]; [18]
  Plant response rating, Ducksalad: 2
Rice (Oryza sativa); [16]
  Plant response rating, Rice: 1
Rice (Oryza sativa); [17]
  Plant response rating, Rice: 0
Rice (Oryza sativa); [18]
  Plant response rating, Rice: 0
[15]; [16]
  Plant response rating, S. Flatsedge: 9
[15]; [17]
  Plant response rating, S. Flatsedge: 1
[15]; [18]
  Plant response rating, S. Flatsedge: 2
